pIC50: −log10 of the molar value. Activity calls are given as the source filed them. The rule behind the calls is not given here.

The results in this text go back to ChEMBL document CHEMBL1134113, “Selective inhibition of Src SH2 by a novel thiol-targeting tricarbonyl-modified inhibitor and mechanistic analysis by (1)H/(13)C NMR spectroscopy” (Bioorg Med Chem Lett, 2001).

Experiment [1] addresses Proto-oncogene tyrosine-protein kinase Src (Homo sapiens, UniProt P12931, C188A). In words: (§1) Binding affinity for Cys188Ala Src SH2 domain mutant using BIAcore binding assay. On the technique in general: Surface plasmon resonance follows binding to a sensor surface in real time, without labels.
Experiment [2] concerns the target T1, Proto-oncogene tyrosine-protein kinase Src (Homo sapiens, UniProt P12931). Description: Selectivity for Src SH2 domain compared to Cys188Ala Src SH2 domain mutants.
For experiment [3], the target named is T1, Proto-oncogene tyrosine-protein kinase Src. In words: Binding affinity for wild type Src SH2 domain using BIAcore binding assay.
Experiment [4] has as its system Proto-oncogene tyrosine-protein kinase Src (Homo sapiens), P12931 [C188A]. The description is as §1. The settings on record: concentration not given here.

What is called pIC50 is the negative decadic logarithm of the IC50, by convention in mol/L. A higher pIC50 goes with a low IC50. On to `CC[C@H](C)[C@H](NC(=O)[C@H](CCC(=O)O)NC(=O)[C@H](CCC(=O)O)NC(=O)CCc1ccc(C(=O)C(O)(O)C(=O)OC)cc1)C(N)=O`, for which the results for the pIC50 in experiment [1] and in experiment [3] were less than 3.00 and 4.70, respectively. In addition, the Selectivity result in experiment [2] was “Active”.

For `CC[C@H](C)[C@H](NC(=O)[C@H](CCC(=O)O)NC(=O)[C@H](CCC(=O)O)NC(=O)C(Cc1ccc(C(=O)C(=O)C(=O)OC)cc1)NC(C)=O)C(N)=O` (stereo not given in full), the negative logarithm of the IC50 (pIC50) in experiment [1] was less than 3.00; in experiment [3], 5.64. For the same molecule, the Selectivity result in experiment [2] was “Active”.

Turning to `CC[C@H](C)[C@H](NC(=O)[C@H](CCC(=O)O)NC(=O)[C@H](CCC(=O)O)NC(=O)[C@@H](N)Cc1ccc(OP(=O)(O)O)cc1)C(=O)O`, the pIC50 in experiment [1] was 5.88; in experiment [3] it was 5.92.

As to `COC(=O)C(O)(O)C(=O)c1ccccc1`, the negative logarithm of the IC50 (pIC50) in experiment [1] is less than 3.00; in experiment [3], 4.00. The Selectivity entry in experiment [2] is “Active”.

As to `COC(=O)C(=O)C(=O)c1ccc(CC(NC(C)=O)C(=O)N[C@@H](CCC(=O)O)C(=O)N[C@H](C(=O)N[C@@H](CC(C)C)C(N)=O)[C@@H](C)O)cc1` (stereo not given in full), the pIC50 was less than 3.00 in experiment [1] and 5.07 in experiment [3]. Also, the Selectivity result in experiment [2] was “Active”.

As to `CC[C@H](C)[C@H](NC(=O)[C@H](CCC(=O)O)NC(=O)[C@H](CCC(=O)O)NC(=O)CCc1cccc(C(=O)C(O)(O)C(=O)OC)c1)C(N)=O`, the results for the negative logarithm of the IC50 (pIC50) in experiment [1] and in experiment [3] were less than 3.00 and 4.74, respectively. Moreover, the Selectivity entry in experiment [2] is “Active”.

The term inhibition denotes the percentage by which the read-out fell short of the control. Low readings indicate little suppression, high ones strong suppression. `CC[C@H](C)[C@H](NC(=O)[C@H](CCC(=O)O)NC(=O)[C@H](CCC(=O)O)NC(=O)CCc1cccc(C(=O)O)c1)C(N)=O` came in with an inhibition in experiment [4] of 15%. Also, the Selectivity result in experiment [2] was “inactive”. For the same molecule, in experiment [3], the negative logarithm of the IC50 (pIC50) is 3.60.
